Data taken from US10064885B2, “Metabolic gene, enzyme, and flux targets for cancer therapy” (Massachusetts Institute of Technology, priority 2010, dated 2018).

Experiments:
Assay type in all cases: cell-based, human
[1] = system: A549 cells; test: Isotopomer Spectral Analysis (ISA) of lipogenesis in A549 cells
Method: (§1) Cell Culture, Isotopic Labeling, and Hypoxia. All cell lines were cultured in Dulbecco's Modified Eagle Medium (DMEM; Mediatech) containing 10% fetal bovine serum (FBS; Invitrogen) and 100 U/ml penicillin/streptomycin (P/S; Mediatech) unless otherwise mentioned. Cell lines were obtained from ATCC unless otherwise noted. The VC3 glioma cell line was provided by Tim Lautenschlaeger (Ohio State University), MDA-MB-231 and HCT116 cell lines were provided by Ferdinando Chiaradonna (University of Milano-Bicocca), MRC5 cells were provided by Stephen Lippard (MIT), SN12C, ACHN, and 786-O cells were provided by Kevin Courtney and Lew Cantley (Harvard Medical School), and MCF10A cells were provided by Joan Brugge (Harvard Medical School), and Huh7 cells were provided by Mike Hemann (MIT). MCF10A cells were cultured in custom DMEM/F12 (Hyclone) containing 5% horse serum, 20 ng/ml EGF, 10 μg/ml insulin, 100 ng/ml cholera toxin, 0.5 mg/ml hydrocortisone, 100 U/ml penicillin/streptomycin, and labeled/unlabeled glucose and glutamine at 18 mM and 2.5 mM, respectively. […] The internal gas content was monitored using Fyrite gas analyzers (Bacharach) for CO2 and O2. […]
(§2) Metabolite Extraction and Gas Chromatography/Mass Spectrometry (GC/MS) Analysis. […] In some ISA experiments, cells were trypsinized, counted, and pelleted prior to lipid extraction as described above. […]

[2] = system: 143B cells; test: Isotopomer Spectral Analysis (ISA) of lipogenesis in 143B cells
Method: as §1, §2

[3] = system: UMRC2 cells; test: ISA of lipogenesis and glucose oxidation in UMRC2 cells expressing ARNT-targeting shRNAs; conditions: UMRC2 cells (VHL-deficient)
Method: as §1, §2

[4] = system: A549 cells; test: 13C Metabolic Flux Analysis (MFA) of A549 cells expressing IDH1-targeting shRNAs, [U-13C5]glutamine tracer
Method: (§3) Cell Culture, Isotopic Labeling, and Hypoxia. All cell lines were cultured in Dulbecco's Modified Eagle Medium (DMEM; Mediatech) containing 10% fetal bovine serum (FBS; Invitrogen) and 100 U/ml penicillin/streptomycin (P/S; Mediatech) unless otherwise mentioned. Cell lines were obtained from ATCC unless otherwise noted. The VC3 glioma cell line was provided by Tim Lautenschlaeger (Ohio State University), MDA-MB-231 and HCT116 cell lines were provided by Ferdinando Chiaradonna (University of Milano-Bicocca), MRC5 cells were provided by Stephen Lippard (MIT), SN12C, ACHN, and 786-O cells were provided by Kevin Courtney and Lew Cantley (Harvard Medical School), and MCF10A cells were provided by Joan Brugge (Harvard Medical School), and Huh7 cells were provided by Mike Hemann (MIT). MCF10A cells were cultured in custom DMEM/F12 (Hyclone) containing 5% horse serum, 20 ng/ml EGF, 10 μg/ml insulin, 100 ng/ml cholera toxin, 0.5 mg/ml hydrocortisone, 100 U/ml penicillin/streptomycin, and labeled/unlabeled glucose and glutamine at 18 mM and 2.5 mM, respectively. PRC3, WT8, pTV, and pTR cell lines were subcloned from the 786-O cell line as previously described (42, 43). For isotopic labeling experiments, cells were cultured in 6 well plates in glucose- and glutamine-free DMEM (Sigma) containing 10% dialyzed FBS (Invitrogen), 100 U/ml P/S, naturally labeled glucose or glutamine, and the appropriate tracer, including [U-^13C5]glutamine (Isotec), [5-^13C]glutamine (C/D/N Isotopes), [1-^13C]glutamine, [U-^13C6]glucose, [1,2-^13C2]glucose (all from Cambridge Isotope Labs). Steady state labeling of organic and amino acids was accomplished by culturing subconfluent cells in tracer medium for 24 hours. Labeling of fatty acids for Isotopomer Spectral Analysis (USA) was conducted over 3-5 days of culture in an excess of tracer medium (3-4 ml/well in a 6 well plate) to prevent nutrient depletion. Hypoxic culture was conducted by feeding a custom mixture of 1% O2, 5% CO2, and 94% N2 to a standard incubator controlled at 5% CO2. HEPES (Mediatech) was added to the culture medium at 20 mM to maintain pH between normoxic and hypoxic cultures. The internal gas content was monitored using Fyrite gas analyzers (Bacharach) for CO2 and O2. O2 levels were confirmed at 1.5-2% during hypoxic culture.
Stable cell cultures with decreased IDH1 and IDH2 expression were generated via lentiviral-mediated shRNA expression. pLKO.1 lentiviral vectors targeting IDH1 with shRNA sequences of […] TT (IDH1a; TRCN0000027298; SEQ ID NO:1) and […] TT (IDH1b; TRCN0000027289; SEQ ID NO:2), IDH2 with shRNA sequence […] TT (TRCN0000027225; SEQ ID NO:3). For controls, either non-targeting control shRNA (SHC002; Sigma) or pLKO.1 scrambled control vector (44)(Addgene) were used. pLKO.1 vector targeting ARNT with shRNA sequence […] TT (TRCN0000003819; SEQ ID NO:4) was obtained from Open Biosystems.
HEK293T cells were co-transfected with pLKO.1 vectors and packaging plasmids to produce lentivirus. Filtered supernatants were used for infection, and cells were selected with puromycin (2 μg/ml) for at least two passages before initiating tracer and flux experiments.
Metabolite Extraction and Gas Chromatography/Mass Spectrometry (GC/MS) Analysis. At the conclusion of culture, cells were rinsed with 1 ml ice cold PBS and quenched with 0.4 ml ice cold methanol. An equal volume of water was added, and cells were collected in tubes by scraping with a pipette. One volume of ice cold chloroform was added to each tube, and the extracts were vortexed at 4° C. for 30 minutes. Samples were centrifuged at 14,000 g for 5 minutes at room temperature. For analysis of polar metabolites, the aqueous phase was transferred to a new tube for evaporation under airflow. For ISA experiments, the non-polar fraction was collected and evaporated under airflow. In some ISA experiments, cells were trypsinized, counted, and pelleted prior to lipid extraction as described above. […]

[5] = system: A549 cells; test: Reductive glutamine metabolism by isotopic labeling and GC/MS in A549 cells expressing shRNAs; conditions: [U-13C5]glutamine, aspartate, malate, fumarate
Method: as §3, with “Labeling of fatty acids for Isotopomer Spectral Analysis (USA) was conducted over 3-5 days of culture in an excess of tracer medium (3-4 ml/well in a 6 well plate) to prevent nutrient depletion. Hypoxic culture was conducted by feeding a custom mixture of 1% O2, 5% CO2, and 94% N2 to a standard incubator controlled at 5% CO2. HEPES (Mediatech) was added to the culture medium at 20 mM to maintain pH between normoxic and hypoxic cultures.” left out, “O2 levels were confirmed at 1.5-2% during hypoxic culture.” left out
as §2

[6] = system: HCT116 colon carcinoma; test: Reductive carboxylation by [1-13C]glutamine labeling and GC/MS in HCT116 cells expressing shRNAs
Method: as §3, with “Labeling of fatty acids for Isotopomer Spectral Analysis (USA) was conducted over 3-5 days of culture in an excess of tracer medium (3-4 ml/well in a 6 well plate) to prevent nutrient depletion. Hypoxic culture was conducted by feeding a custom mixture of 1% O2, 5% CO2, and 94% N2 to a standard incubator controlled at 5% CO2. HEPES (Mediatech) was added to the culture medium at 20 mM to maintain pH between normoxic and hypoxic cultures.” left out, “O2 levels were confirmed at 1.5-2% during hypoxic culture.” left out
as §2

[7] = system: MDA-MB-231 breast carcinoma; test: Reductive carboxylation by [1-13C]glutamine labeling and GC/MS in MDA-MB-231 cells expressing shRNAs
Method: as §3, with “Labeling of fatty acids for Isotopomer Spectral Analysis (USA) was conducted over 3-5 days of culture in an excess of tracer medium (3-4 ml/well in a 6 well plate) to prevent nutrient depletion. Hypoxic culture was conducted by feeding a custom mixture of 1% O2, 5% CO2, and 94% N2 to a standard incubator controlled at 5% CO2. HEPES (Mediatech) was added to the culture medium at 20 mM to maintain pH between normoxic and hypoxic cultures.” left out, “O2 levels were confirmed at 1.5-2% during hypoxic culture.” left out
as §2

[8] = system: 143B osteosarcoma; test: Reductive carboxylation by [1-13C]glutamine labeling and GC/MS in 143B cells expressing shRNAs
Method: as §1, §2

[9] = system: Hypoxia response element- (HRE-) driven reporter; test: Hypoxia response element (HRE)-driven reporter in HCT116 cells expressing IDH1-targeting shRNAs; conditions: normal culture, hypoxia, or 1 mM DMOG, 18 hours
Method: Luciferase Assays. Subconfluent cells in 6 well plates were co-transfected with 1 μg of a firefly luciferase vector and 50 ng Renilla luciferase vector (pRL-TK; Promega) using Fugene 6 reagent. The ODD-Luciferase and Luciferase vectors were obtained from Addgene and based off of the pcDNA3.1 vector (49). Hypoxia responsive element-luciferase (HRE-Luc) vectors were used as described (50). Approximately 24 hours after transfection, medium was changed and cells were placed under normoxia, hypoxia, or treated with 1 mM dimethyloxalylglycine (DMOG). After 18 hours of treatment, cells were lysed and luciferase activity was determined using the Dual Luciferase Reporter Assay system (Promega) according to the manufacturer's instructions.

[10] = Anaplerotic reactions, exchange flux
[11] = Anaplerotic reactions, net flux
[12] = Pentose Phosphate Pathway, exchange flux
[13] = Pentose Phosphate Pathway, net flux

CCGGGAGAAGTCAGATGGTTTATTTCTCGAGAAATAAACCATCTGACTTCTCTTT TT (CCGGGAGAAGTCAGATGGTTTATTTCTCGAGAAATAAACCATCTGACTTCTCTTTTT; expressed or natural sequence) [ARNT shRNA, pLKO.1 vector targeting ARNT with shRNA, obtained from Open Biosystems]
utilization of [5-13C]glutamine for lipogenesis [1]: reduced
utilization of [5-13C]glutamine for lipogenesis [2]: reduced
glucose oxidation and reductive glutamine metabolism [3]: modulates glucose oxidation and reductive glutamine metabolism

CCGGGCTGCTTGCATTAAAGGTTTACTCGAGTAAACCTTTAATGCAAGCAGCTTT TT (CCGGGCTGCTTGCATTAAAGGTTTACTCGAGTAAACCTTTAATGCAAGCAGCTTTTT; expressed or natural sequence) [IDH1a, pLKO.1 lentiviral vector shRNA targeting IDH1]
Flux Pyr.m <−> Ala ([4]; Amino acids, exchange flux): 0.00 fmol/cell*hr
Flux Gln −> Glu ([4]; Amino acids, net flux): 22.97 fmol/cell*hr
Flux Gln.x −> Gln ([4]; Amino acids, net flux): 23.47 fmol/cell*hr
Flux Glu −> Glu.x ([4]; Amino acids, net flux): 18.56 fmol/cell*hr
Flux Pyr.m −> Ala ([4]; Amino acids, net flux): 0.42 fmol/cell*hr
Flux Glu <−> Akg [4, 10]: 499.30 fmol/cell*hr
Flux Mal <−> Pyr.m + CO2 [4, 10]: 0.00 fmol/cell*hr
Flux Oac <−> Asp [4, 10]: 0.01 fmol/cell*hr
Flux Glu −> Akg [4, 11]: 3.90 fmol/cell*hr
Flux Mal −> Pyr.m + CO2 [4, 11]: 5.44 fmol/cell*hr
Flux Oac −> Asp [4, 11]: 0.61 fmol/cell*hr
Flux Pyr.m + CO2 −> Oac [4, 11]: 2.14 fmol/cell*hr
Flux 0.6*Asp + 0.5*Glu + 0.42*Ala + 0.5*Gln −> Biomass ([4]; Biomass, net flux): 1.01 fmol/cell*hr
Flux AcCoA.c −> Fatty acids ([4]; Biomass, net flux): 10.65 fmol/cell*hr
Flux Cit −> AcCoA.c + Oac ([4]; Biomass, net flux): 10.65 fmol/cell*hr
Flux P5P −> NTP ([4]; Biomass, net flux): 0.50 fmol/cell*hr
Flux 0*Pyr.c −> Pyr.mnt ([4]; Dilution/Mixing): 1.00 fmol/cell*hr
Flux 0*Pyr.m −> Pyr.mnt ([4]; Dilution/Mixing): 0.00 fmol/cell*hr
Flux 0*Suc −> Suc.mnt ([4]; Dilution/Mixing): 0.24 fmol/cell*hr
Flux Suc.d −> Suc.mnt ([4]; Dilution/Mixing): 0.76 fmol/cell*hr
Flux Pyr.c <−> Pyr.m ([4]; Dilution/Mixing, exchange flux): 82.77 fmol/cell*hr
Flux Pyr.c −> Pyr.m ([4]; Dilution/Mixing, net flux): 11.79 fmol/cell*hr
Flux DHAP <−> GAP ([4]; Glycolysis, exchange flux): 566.90 fmol/cell*hr
Flux G6P <−> F6P ([4]; Glycolysis, exchange flux): 3.2E+04 fmol/cell*hr
Flux GAP <−> 3PG ([4]; Glycolysis, exchange flux): 1.7E+08 fmol/cell*hr
Flux Pyr.c <−> Lac ([4]; Glycolysis, exchange flux): 706.50 fmol/cell*hr
Flux 3PG −> Pyr.c ([4]; Glycolysis, net flux): 186.40 fmol/cell*hr
Flux DHAP −> GAP ([4]; Glycolysis, net flux): 91.96 fmol/cell*hr
Flux F6P −> DHAP + GAP ([4]; Glycolysis, net flux): 91.96 fmol/cell*hr
Flux G6P −> F6P ([4]; Glycolysis, net flux): 86.95 fmol/cell*hr
Flux GAP −> 3PG ([4]; Glycolysis, net flux): 186.40 fmol/cell*hr
Flux Glc.x −> G6P ([4]; Glycolysis, net flux): 94.96 fmol/cell*hr
Flux Lac −> Lac.x ([4]; Glycolysis, net flux): 174.60 fmol/cell*hr
Flux Pyr.c −> Lac ([4]; Glycolysis, net flux): 174.60 fmol/cell*hr
Flux P5P + E4P <−> F6P + GAP [4, 12]: 1.76 fmol/cell*hr
Flux P5P + P5P <−> S7P + GAP [4, 12]: 3.0E+04 fmol/cell*hr
Flux S7P + GAP <−> F6P + E4P [4, 12]: 1.9E+05 fmol/cell*hr
Flux G6P −> P5P + CO2 [4, 13]: 8.01 fmol/cell*hr
Flux P5P + E4P −> F6P + GAP [4, 13]: 2.50 fmol/cell*hr
Flux P5P + P5P −> S7P + GAP [4, 13]: 2.50 fmol/cell*hr
Flux S7P + GAP −> F6P + E4P [4, 13]: 2.50 fmol/cell*hr
Flux Fum <−> Mal ([4]; TCA Cycle, exchange flux): 1.1E+06 fmol/cell*hr
Flux Mal <−> Oac ([4]; TCA Cycle, exchange flux): 98.66 fmol/cell*hr
Flux Suc <−> Fum ([4]; TCA Cycle, exchange flux): 0.00 fmol/cell*hr
Flux Cit <−> Akg + CO2 ([4]; TCA Cycle, exchange flux (reductive IDH flux)): 1.88 fmol/cell*hr
Flux AcCoA.m + Oac −> Cit ([4]; TCA Cycle, net flux): 14.66 fmol/cell*hr
Flux Akg −> Suc + CO2 ([4]; TCA Cycle, net flux): 7.91 fmol/cell*hr
Flux Fum −> Mal ([4]; TCA Cycle, net flux): 7.91 fmol/cell*hr
Flux Mal −> Oac ([4]; TCA Cycle, net flux): 2.48 fmol/cell*hr
Flux Pyr.m −> AcCoA.m + CO2 ([4]; TCA Cycle, net flux): 14.66 fmol/cell*hr
Flux Suc −> Fum ([4]; TCA Cycle, net flux): 7.91 fmol/cell*hr
Flux Cit −> Akg + CO2 ([4]; TCA Cycle, net flux (IDH)): 4.01 fmol/cell*hr
M3 mass isotopomers derived from [U-13C5]glutamine (reductive carboxylation) [5]: decrease in reductive carboxylation
reductive carboxylation flux (M1 label from [1-13C]glutamine) [6]: reduces reductive carboxylation flux
reductive carboxylation flux (M1 label from [1-13C]glutamine) [7]: reduces reductive carboxylation flux
reductive carboxylation flux [8]: reduces reductive carboxylation flux
HRE-driven reporter levels (hypoxia signaling) [9]: does not increase hypoxia signaling and stabilization
